The assay concerns glioblastoma brain cancer cell line LN-229. The assay can be described thus: Cytotoxicity assay (CCK8 viability). It counts as cell-based. Conditions: Homo sapiens, LN-229 cells, 48 hrs. As to the method:
Cytoxocity assay: Cells are seeded on a 96 well polystyrene plate in full serum media at a density of 75,000 cells per milliliter, 100 μL per well. Plates are incubated at 37° C. and 5% CO2 for 24 hours to allow cell attachment. Drug solutions are prepared in DMSO at 100× concentration and mixed 1:100 in 1% FBS media to yield the desired concentration. Drug-media mixtures are vortexed immediately prior to administration to cells. […] of Cell Counting Kit 8 (CCK8, Dojindo# CK04-11) is added to each well to colormetrically assess viability. After 2-4 hours of incubation with the CCK8 dye, absorbance is read at 450 nm by a BioTek Synergy 2 plate reader.
The cytotoxicity of selected compounds against the glioblastoma brain cancer cell line LN-229 is depicted in Table 1.

SMILES strings stand for the structures.

As for `CCCCCCC(C)(C)c1cc(O)c2c(-c3ccccc3)coc2n1` [Compound 4c, 6-(2-Methyloctan-2-yl)-3-phenylfuro[2,3-b]pyridin-4-ol], the EC50 is 33.6 µM.

As usually defined, the EC50 is the midpoint of the concentration-response curve.

The values above are taken from US8431595B2, “Furanopyridine cannabinoid compounds and related methods of use” (The University of Tennessee Research Foundation, priority 2009, dated 2013).
